Results from paper PMC7083565, “In vitro metabolism, reaction phenotyping, enzyme kinetics, CYP inhibition and induction potential of ataluren” (Pharmacology Research & Perspectives, 2020).

What was measured:
[1] = Incubation with 16 individual human liver microsomes (correlation analysis); assay type: in vitro ADME; conditions: 60 minutes, n = 2
Experimental: Ataluren at a concentration of 10 μmol/L, was incubated (n = 2) with 16 individual HLM at 0.5 mg protein concentration/mL for 0 and 60 minutes at 37°C. Enzyme activities for UGTs 1A1, 1A4, 1A6, 1A9, and 2B7 were precharacterized under optimized conditions by the vendor. Incubation mixtures and procedures were essentially the same as the above. The supernatant fractions were analyzed by LC‐MS/MS to quantify the formation of ataluren‐O‐1β‐acyl glucuronide and the loss of ataluren, and the enzyme activities were correlated with precharacterized UGT enzyme activities. Detailed LC‐MS/MS conditions are summarized in LC‐MS/MS Analysis section. […] The ataluren acyl glucuronide formation rate after 60 minutes incubation was calculated using the amount of metabolite formed (pmol) divided by the protein amount in the incubation sample ([…]) and the incubation time (60 minutes). […]
Quantification of ataluren loss and ataluren‐O‐1β‐acyl glucuronide formation was carried out with an LC‐MS/MS system, which consisted of two Shimadzu LC‐10ADvp pumps, a SPD10‐AVP UV/Vis detector, a Shimadzu SILHTA autosampler, a Shimadzu DGU‐14A degasser, and a Sciex API 4000 QTRAP mass spectrometer equipped with a Turbo Ionspray ionization source that operated in positive ionization mode. […]

CYP2C9 = target: T1, CYP2C9 (Homo sapiens, UniProt P11712); experiment: CYP inhibition in pooled human liver microsomes: CYP2C9; assay type: in vitro ADME
T1 construct: tissue XenoTech LLC, Celsis-In Vitro Technologies, or Tissue Transformation Technologies; host or cells: pooled human liver microsomes
T1 sequence (P11712 whole entry): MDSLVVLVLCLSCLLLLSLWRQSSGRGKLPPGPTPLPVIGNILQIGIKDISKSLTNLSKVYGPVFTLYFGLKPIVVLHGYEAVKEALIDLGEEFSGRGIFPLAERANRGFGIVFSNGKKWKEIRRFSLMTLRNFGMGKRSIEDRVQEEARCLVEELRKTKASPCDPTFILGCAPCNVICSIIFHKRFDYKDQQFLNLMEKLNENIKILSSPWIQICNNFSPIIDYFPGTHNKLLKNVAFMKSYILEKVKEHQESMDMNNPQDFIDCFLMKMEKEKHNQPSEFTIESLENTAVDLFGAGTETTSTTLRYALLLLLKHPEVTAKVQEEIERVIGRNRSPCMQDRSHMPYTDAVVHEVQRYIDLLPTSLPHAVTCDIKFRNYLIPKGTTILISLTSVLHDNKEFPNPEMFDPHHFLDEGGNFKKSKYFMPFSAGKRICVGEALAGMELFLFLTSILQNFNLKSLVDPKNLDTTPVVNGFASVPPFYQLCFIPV
Experimental: The final concentration of each probe substrate was near the experimentally determined Km value for the indicated enzyme. Ataluren or prototypical CYP inhibitors (positive controls) was incubated (n = 3) with probe substrates and HLM in 100 mmol/L phosphate buffer (pH 7.4) in a total volume of approximately 0.25 mL, and the reactions were initiated by the addition of 1 mmol/L NADPH at 37°C. The reactions were carried out using previously established conditions to ensure linearity with respect to protein concentration and incubation time (Table S1). Incubations were stopped with the addition of ice‐cold acetonitrile. Metabolite formation in incubations with test compound and control inhibitors was assessed with LC‐MS/MS methods for each of the reaction products as described in Table S2. […] After 7 minutes incubation at 37°C, the reaction was stopped by the addition of ice‐cold acetonitrile, followed by membrane plate filtration. The filtrates were used for LC‐MS/MS analysis. Enzyme activity remaining at each nonzero ataluren concentration after incubation was normalized against control sample (zero ataluren concentration, enzyme activity = 100%), and the % remaining enzyme activity values were used for IC50 calculation. IC50 values were determined by nonlinear regression with GraphPad Prism 5 using the following four‐parameter sigmoidal‐logistic IC50 equation: Fit=background+range-background/[1+I/IC50^slope]
Where, I is the inhibitor concentration, and background was set to 0 and range to 100, as percent of control values are utilized. K i was determined by nonlinear regression with GraphPad Prism 5 using best fit model.

O=C(O)c1cccc(-c2noc(-c3ccccc3F)n2)c1 [ataluren, Ataluren]
Rate, Loss of ataluren ([1]; individual HLM sample H0273, 10 μmol/L): 111 pmol/mg/min
Rate, Loss of ataluren ([1]; individual HLM sample H0295, 10 μmol/L): 134 pmol/mg/min
Ki (CYP2C9; CYP2C9, competitive, mean ± SE, n = 3): 75.4 ± 4.42 µM
mechanism of inhibition (CYP2C9; CYP2C9, tolbutamide methyl hydroxylase): competitive inhibitor
IC50 (CYP2C9; Diclofenac 4′-hydroxylase, pooled HLM, n=3, (95% confidence interval)): 135 µM
IC50 (CYP2C9; human, pooled human liver microsomes, pH 7.4, CYP2C9, HLM): 134 µM
